What is called Ki is the equilibrium dissociation constant of an inhibitor or competing ligand from its target. As usually defined, the IC50 is the concentration that inhibits the measured activity by half. Broadly, the inhibition in vivo is the relative decrease from the control value, in per cent. Low values mean little suppression, high ones strong suppression.

Bounds are passed on as bounds.

In ChEMBL document CHEMBL1137871, “Discovery of orally active prostaglandin D2 receptor antagonists” (Bioorg Med Chem Lett, 2004) one finds Ki, IC50 and inhibition in vivo data, which are given here for 14 molecules.

Assay [1] concerns the target T1, Prostaglandin E2 receptor EP1 subtype (Mus musculus, UniProt P35375).
T1 sequence (P35375 whole entry): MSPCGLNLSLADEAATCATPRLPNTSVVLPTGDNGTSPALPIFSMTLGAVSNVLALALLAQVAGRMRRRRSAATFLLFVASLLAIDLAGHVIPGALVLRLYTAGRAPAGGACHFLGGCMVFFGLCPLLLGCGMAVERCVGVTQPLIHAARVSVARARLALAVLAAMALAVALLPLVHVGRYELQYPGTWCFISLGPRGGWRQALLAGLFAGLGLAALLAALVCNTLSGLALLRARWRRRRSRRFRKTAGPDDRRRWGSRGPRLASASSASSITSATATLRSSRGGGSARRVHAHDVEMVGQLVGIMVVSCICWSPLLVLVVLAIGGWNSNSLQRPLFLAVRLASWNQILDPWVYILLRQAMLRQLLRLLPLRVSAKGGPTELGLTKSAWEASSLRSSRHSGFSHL
Briefly: Ability to inhibit the binding of [3H]PGD-2 radioligand to membranes of CHO cells stably expressing mouse Prostaglandin E receptor EP1. Format: cell membranes.

In assay [2] the target is Prostaglandin E2 receptor EP2 subtype (Mus musculus, UniProt Q62053). Briefly: Ability to inhibit the binding of [3H]-PGD-2 radioligand to membranes of CHO cells stably expressing mouse Prostaglandin E receptor EP2. Type of assay: cell membranes.
Chain of Prostaglandin E2 receptor EP2 subtype (Q62053 whole entry): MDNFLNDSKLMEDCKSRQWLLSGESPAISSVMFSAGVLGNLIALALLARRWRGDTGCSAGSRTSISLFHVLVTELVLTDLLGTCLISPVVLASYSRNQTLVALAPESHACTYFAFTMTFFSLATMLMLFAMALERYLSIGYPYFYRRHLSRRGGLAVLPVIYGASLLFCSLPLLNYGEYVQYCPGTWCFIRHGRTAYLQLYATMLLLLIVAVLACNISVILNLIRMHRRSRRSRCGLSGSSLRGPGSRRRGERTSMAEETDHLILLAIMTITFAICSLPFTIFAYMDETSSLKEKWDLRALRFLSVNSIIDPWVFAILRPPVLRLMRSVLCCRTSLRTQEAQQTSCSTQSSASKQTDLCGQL
The target in assay [3] is Prostaglandin E2 receptor EP4 subtype (Mus musculus, UniProt P32240). Briefly: Ability to inhibit the binding of [3H]PGD-2 radioligand to membranes of CHO cells stably expressing mouse Prostaglandin E receptor EP4. Format: cell membranes.
Chain of Prostaglandin E2 receptor EP4 subtype (P32240 whole entry): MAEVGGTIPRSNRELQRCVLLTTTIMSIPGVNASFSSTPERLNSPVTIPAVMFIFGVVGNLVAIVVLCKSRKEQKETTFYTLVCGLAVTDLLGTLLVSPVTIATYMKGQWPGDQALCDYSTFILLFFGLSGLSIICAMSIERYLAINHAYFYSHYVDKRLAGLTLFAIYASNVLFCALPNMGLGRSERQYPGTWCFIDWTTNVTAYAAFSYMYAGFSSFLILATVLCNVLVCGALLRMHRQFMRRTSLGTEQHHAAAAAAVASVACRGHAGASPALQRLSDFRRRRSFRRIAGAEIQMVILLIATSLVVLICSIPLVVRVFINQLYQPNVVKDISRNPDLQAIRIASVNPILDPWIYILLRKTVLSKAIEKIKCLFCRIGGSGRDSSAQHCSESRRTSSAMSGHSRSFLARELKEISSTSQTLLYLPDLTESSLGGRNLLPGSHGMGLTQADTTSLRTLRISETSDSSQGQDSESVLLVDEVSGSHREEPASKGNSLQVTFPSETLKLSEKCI
Assay [4] concerns the target T2, Prostaglandin D2 receptor (Mus musculus, UniProt P70263).
T2 sequence (P70263 whole entry): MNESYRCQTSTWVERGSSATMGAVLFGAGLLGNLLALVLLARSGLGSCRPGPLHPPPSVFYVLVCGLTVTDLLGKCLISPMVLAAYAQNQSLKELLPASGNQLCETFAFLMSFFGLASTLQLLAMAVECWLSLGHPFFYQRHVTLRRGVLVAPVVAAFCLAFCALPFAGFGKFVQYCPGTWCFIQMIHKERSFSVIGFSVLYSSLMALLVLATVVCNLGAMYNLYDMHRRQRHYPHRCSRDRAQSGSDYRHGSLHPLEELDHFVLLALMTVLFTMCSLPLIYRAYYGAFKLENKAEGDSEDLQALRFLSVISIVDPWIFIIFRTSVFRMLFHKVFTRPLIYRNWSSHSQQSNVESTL
Briefly: Effect on the increase in cAMP formation induced by PGD-2 in the presence of bovine serum albumin in CHO cells expressing mouse Prostaglandin D2 receptor. Format: functional, cell-based.

Assay [5] concerns the target T2, Prostaglandin D2 receptor. Briefly: Ability to inhibit the binding of [3H]PGD-2 radioligand to membranes of CHO cells stably expressing mouse Prostaglandin D2 receptor. Format: cell membranes.
The target of assay [6] is T3, Prostaglandin E2 receptor EP3 subtype (Mus musculus, UniProt P30557).
T3 sequence (P30557 whole entry): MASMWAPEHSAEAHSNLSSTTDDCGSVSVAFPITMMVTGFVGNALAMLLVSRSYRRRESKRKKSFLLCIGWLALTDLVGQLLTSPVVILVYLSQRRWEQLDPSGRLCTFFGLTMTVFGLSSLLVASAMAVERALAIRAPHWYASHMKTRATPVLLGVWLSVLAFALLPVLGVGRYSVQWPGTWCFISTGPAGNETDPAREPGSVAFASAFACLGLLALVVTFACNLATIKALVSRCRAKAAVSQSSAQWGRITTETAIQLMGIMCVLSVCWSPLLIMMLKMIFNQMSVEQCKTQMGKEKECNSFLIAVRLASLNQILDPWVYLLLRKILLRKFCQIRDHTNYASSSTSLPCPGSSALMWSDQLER
Briefly: Ability to inhibit the binding of [3H]PGD-2 radioligand to membranes of CHO cells stably expressing mouse Prostaglandin E receptor EP3. Type of assay: cell membranes.

Assay [7] has as its target T4, Prostaglandin D2 receptor (Homo sapiens, UniProt Q13258).
T4 sequence (Q13258 whole entry): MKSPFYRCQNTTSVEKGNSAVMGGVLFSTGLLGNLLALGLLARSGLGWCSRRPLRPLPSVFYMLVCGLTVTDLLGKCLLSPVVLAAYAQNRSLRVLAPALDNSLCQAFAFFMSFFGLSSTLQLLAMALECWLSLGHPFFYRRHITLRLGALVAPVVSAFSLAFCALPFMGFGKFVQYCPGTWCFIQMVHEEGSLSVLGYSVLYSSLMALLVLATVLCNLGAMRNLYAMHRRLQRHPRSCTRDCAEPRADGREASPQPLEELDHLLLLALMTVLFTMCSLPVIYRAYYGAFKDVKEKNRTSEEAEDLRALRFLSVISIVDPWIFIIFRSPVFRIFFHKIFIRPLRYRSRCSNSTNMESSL
Briefly: Effect on the increase in cAMP formation induced by PGD-2 in the presence of bovine serum albumin in CHO cells expressing human Prostaglandin D2 receptor. Format: functional, cell-based.

Assay [8] deals with T4, Prostaglandin D2 receptor. Briefly: Ability to inhibit the binding of [3H]PGD-2 radioligand to membranes of CHO cells stably expressing human Prostaglandin D2 receptor. Format: cell membranes.
The next assay has as its system Cavia porcellus. Briefly: inhibitory effect of compound on PGD-2 (0.01%, 20 uL/eye) induced vascular permeability in guinea pig conjunctiva at an oral dose of 0.3 mg/kg.

Consider `CCCCOc1ccc(C(=O)n2c(C)cc3c(CC(=O)O)cccc32)cc1`, for which the inhibition constant Ki in [1] is over 10000 nM; in [2], 2000 nM; in [3], over 10000 nM; in [5] it was 10 nM; in assay [6], 3300 nM. The half-inhibitory concentration (IC50) in [4] was found to be 300 nM.

With `Cc1cc2c(CC(=O)O)cccc2n1C(=O)c1ccc(OCC2Oc3ccccc3O2)cc1`, the IC50 in assay [7] was 50 nM. In addition, the inhibition constant (Ki) in [1] was 780 nM; in assay [2], 250 nM; in assay [3], over 10000 nM; in assay [8], 30 nM; in assay [5], 9.4 nM; in assay [6], 750 nM.

Regarding `Cc1cc2c(CC(=O)O)cccc2n1C(=O)c1ccc(OC[C@@H]2CN(C)c3ccc(F)cc3O2)cc1`, the 50% inhibitory concentration (IC50) in assay [7] turned out to be 0.81 nM. The Ki in assay [1] was over 10000 nM; in [2] it was 2100 nM; in assay [3], over 10000 nM; in assay [8] it was 5.3 nM; in assay [5] it was 23 nM; in assay [6] it was 1700 nM. In addition, the inhibition in vivo at 0.3 mg/kg in the assay with Cavia porcellus is 60%.

For the molecule `Cc1cc2c(CC(=O)O)cccc2n1C(=O)c1ccc(OCCOc2ccccc2)cc1`, the results for the half-maximal inhibitory concentration (IC50) in [7] and in [4] were 250 nM and 50 nM, respectively. Also, the Ki is 5600 nM in assay [1]; 540 nM in [2]; over 10000 nM in [3]; 290 nM in assay [8]; 10 nM in [5]; over 10000 nM in assay [6].

For the molecule `Cc1cc2c(CC(=O)O)cccc2n1C(=O)c1ccc(OCCCc2ccccc2)cc1`, the inhibition constant Ki in assay [1] is 7700 nM; in assay [3], 2100 nM; in assay [5], 170 nM; in [6] it was 3300 nM.

As for `Cc1cc2c(CC(=O)O)cccc2n1C(=O)c1ccc(OCC2COc3ccccc3C2)cc1` (stereo unspecified), the Ki in assay [1] is over 10000 nM; in [2], 280 nM; in assay [3], 3500 nM; in assay [8] it was 390 nM; in assay [5], 180 nM; in [6], over 10000 nM.

Take `Cc1cc2c(CC(=O)O)cccc2n1C(=O)c1ccc(OCCc2ccccc2)cc1`: the Ki in [1] was found to be 400 nM; in assay [2] it was 1300 nM; in [3] it was 1900 nM; in assay [6] it was 2200 nM.

Consider `Cc1cc2c(CC(=O)O)cccc2n1C(=O)c1ccc(OCC2Cc3ccccc3O2)cc1` (stereo unspecified), for which the 50% inhibitory concentration (IC50) in assay [7] is 30 nM. Moreover, the inhibitory constant (Ki) in assay [1] was 7800 nM; in [2] it was 450 nM; in assay [3] it was over 10000 nM; in assay [8] it was 20 nM; in assay [5], 20 nM; in [6], 980 nM.

On to `Cc1cc2c(CC(=O)O)cccc2n1C(=O)c1ccc(OC[C@@H]2COc3ccccc3O2)cc1`, for which, in [7], the half-maximal inhibitory concentration (IC50) worked out at 30 nM. For the same molecule, the inhibition constant Ki in [1] is 2000 nM; in [2], 60 nM; in [3] it was over 10000 nM; in assay [8] it was 10 nM; in assay [5], 10 nM; in assay [6], over 10000 nM.

As to `Cc1cc2c(CC(=O)O)cccc2n1C(=O)c1ccc(OC[C@@H]2CN(C)c3ccccc3O2)cc1`, the concentration for half-maximal inhibition (IC50) in assay [7] is 1.2 nM. Also, the inhibition constant Ki in [1] was 6200 nM; in assay [2], 100 nM; in assay [3], over 10000 nM; in [8], 3.5 nM; in assay [5], 10 nM; in assay [6], 1700 nM.

Turning to `Cc1cc2c(CC(=O)O)cccc2n1C(=O)c1ccc(OCc2ccccc2)cc1`, the Ki is 1200 nM in assay [1]; 330 nM in [2]; over 10000 nM in assay [3]; 60 nM in assay [5]; 1200 nM in assay [6]. In addition, in assay [4], the 50% inhibitory concentration (IC50) was found to be 1300 nM.

On to `Cc1cc2c(CC(=O)O)cccc2n1C(=O)c1ccc(OC[C@H]2CN(C)c3ccccc3O2)cc1`, for which the IC50 in assay [7] was 10 nM. The Ki in assay [1] was over 10000 nM; in assay [2], 410 nM; in assay [3], over 10000 nM; in assay [8], 170 nM; in [5], 230 nM; in assay [6], over 10000 nM.

With `Cc1cc2c(CC(=O)O)cccc2n1C(=O)c1ccc(OCC2CCc3ccccc3O2)cc1` (stereo unspecified), the IC50 in assay [7] worked out at 30 nM. For the same molecule, the Ki in [1] was 3800 nM; in assay [2], 90 nM; in [3], 3100 nM; in assay [8] it was 50 nM; in assay [5] it was 60 nM; in assay [6], over 10000 nM.

Consider `Cc1cc2c(CC(=O)O)cccc2n1C(=O)c1ccc(OC[C@H]2COc3ccccc3O2)cc1`, for which the IC50 in assay [7] amounted to 270 nM. The inhibitory constant (Ki) is 2300 nM in assay [1]; 1300 nM in assay [2]; 1300 nM in [3]; 130 nM in [8]; 120 nM in assay [5]; over 10000 nM in assay [6].
